11 molecules from ChEMBL document CHEMBL1201862, “PubChem BioAssay data set” (2004) can be followed below.

Some test systems named below: SN12C; SNB-19; NCI-H23; U-251; A498; LOX IMVI; COLO 205; MDA-N; OVCAR-5; MCF7; SK-MEL-5; HL-60; SK-MEL-2; BT-549; MDA-MB-435; SF-539; SNB-75; HCC 2998.
What all share (test): NCI tumour cell line growth inhibition, 48 h

Several values for one entry are separate records, joined by “and”; a condition that tells them apart may be missing. Equal entries are not always repeated.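 Cultured in 96-well plates, cells were exposed to test compound for 48 hours across five concentrations. At the GI50, growth is halved.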 Activity calls are given as the source filed them. No stated cut-off is given here; in the data, active = GI50 up to about 1.1 µM and inactive = higher.

`Cc1ccc2c(=O)c(-c3nnc(NC4CCCCC4)s3)c[nH]c2n1`: the GI50 in the test on SN12C, in the test with SNB-19, in the test on NCI-H23, in the test with U-251, with A498 and in the test with LOX IMVI was > 100 µM (inactive) each time. Besides, the GI50 in the test with COLO 205 was > 100 µM (inactive); in the test with MDA-N it was 81.7 µM (inactive); in the test on OVCAR-5, > 100 µM (inactive); in the test with MCF7, > 100 µM (inactive); in the test on SK-MEL-5, 40.9 µM (inactive); with HL-60, > 100 µM (inactive). Moreover, the GI50 in the test with SK-MEL-2, in the test with BT-549 and with MDA-MB-435 was > 100 µM (inactive) in each case.

For `CC1(C)CC(=O)C(=CNc2nc(-c3ccc(Br)cc3)cs2)C(=O)C1`, the GI50 was 39.7 µM (inactive) in the test with SN12C; 33.5 µM (inactive) in the test on SNB-19; 24.8 µM (inactive) in the test with SF-539; 25.8 µM (inactive) in the test on NCI-H23; 6.35 µM (inactive) with SNB-75; 30.6 µM (inactive) in the test with U-251. Moreover, the GI50 in the test on LOX IMVI is 20.9 µM (inactive); with COLO 205, 31.2 µM (inactive); in the test with MDA-N, 37.8 µM (inactive); in the test with OVCAR-5, 42.5 µM (inactive); with MCF7, 32.6 µM (inactive); with SK-MEL-5 it was 32.6 µM (inactive). The GI50 in the test on HL-60 was 27.7 µM (inactive); in the test with SK-MEL-2 it was 19.4 µM (inactive); in the test with BT-549 it was 17.7 µM (inactive); in the test with HCC 2998 it was 28.9 µM (inactive); in the test with MDA-MB-435, 25.6 µM (inactive).

For the molecule `O=C1N/C(=N/N=C\C(O)C(O)C(O)CO)N/C1=C/c1ccc(Cl)cc1` (stereo not given), the GI50 is 69 µM (inactive) and 80.5 µM (inactive) with SN12C; 27 µM (inactive) and 29 µM (inactive) in the test with SNB-19; 41.5 µM (inactive) in the test on SF-539; 30.3 µM (inactive) and 42.8 µM (inactive) with NCI-H23; 41.5 µM (inactive) and 32.9 µM (inactive) with SNB-75; 33 µM (inactive) and 34.1 µM (inactive) in the test on U-251. For the same molecule, the GI50 in the test with A498 was 49.7 µM (inactive) and 39.8 µM (inactive); with LOX IMVI, 40.6 µM (inactive) and 35.5 µM (inactive); in the test on COLO 205, 42.6 µM (inactive) and 30.1 µM (inactive); with MDA-N it was 46.2 µM (inactive) and 38.5 µM (inactive); in the test with OVCAR-5, 81.1 µM (inactive); in the test with MCF7 it was 29.2 µM (inactive). The GI50 with SK-MEL-5 was 32 µM (inactive) and 46.6 µM (inactive); in the test with HL-60 it was 35.7 µM (inactive); in the test with SK-MEL-2, 30.5 µM (inactive) and 40.1 µM (inactive); in the test on BT-549 it was 30.7 µM (inactive) and 23.9 µM (inactive); in the test on HCC 2998 it was > 10 µM (inactive); with MDA-MB-435 it was 59.4 µM (inactive) and 43.8 µM (inactive).

As to `Cc1cc(N(C)C)c2ccccc2[n+]1CCCCCCCCCC[n+]1c(C)cc(N(C)C)c2ccccc21.[O-][Cl+3]([O-])([O-])[O-].[O-][Cl+3]([O-])([O-])[O-]`, the GI50 was 0.251 µM (active) with SN12C; 0.512 µM (active) in the test with SNB-19; 0.991 µM (active) in the test on SF-539; 0.202 µM (active) in the test on NCI-H23; 0.47 µM (active) with SNB-75; 0.124 µM (active) in the test on U-251. The GI50 in the test with A498 was 2.07 µM (inactive); with LOX IMVI, 0.871 µM (active); in the test with COLO 205 it was 0.265 µM (active); with MDA-N, 0.485 µM (active); in the test with OVCAR-5, 3.3 µM (inactive); in the test with MCF7 it was 0.434 µM (active). For the same molecule, the GI50 is 0.165 µM (active) in the test on SK-MEL-5; 0.275 µM (active) in the test with HL-60; 0.962 µM (active) in the test on SK-MEL-2; 0.676 µM (active) in the test with BT-549; 0.893 µM (active) with HCC 2998; 0.516 µM (active) with MDA-MB-435.

`COc1ccc2c(c1)N=C1CSC(c3c(Cl)cccc3[N+](=O)[O-])N1C2` (stereo not given): the GI50 in the test on SN12C is 53.7 µM (inactive); in the test on SNB-19 it was > 100 µM (inactive); with SF-539, 37.2 µM (inactive); in the test with NCI-H23, 45.3 µM (inactive); with SNB-75 it was 25.1 µM (inactive); in the test with U-251, 54.2 µM (inactive). Moreover, the GI50 with LOX IMVI is 35.5 µM (inactive); with COLO 205, 24.9 µM (inactive); in the test on MDA-N, 29.8 µM (inactive); in the test with OVCAR-5, > 100 µM (inactive); in the test with MCF7 it was 30.1 µM (inactive); in the test with SK-MEL-5 it was 19.4 µM (inactive). Further, the GI50 is 31 µM (inactive) in the test with HL-60; 35.4 µM (inactive) in the test on SK-MEL-2; 24.7 µM (inactive) in the test on BT-549; 21.4 µM (inactive) in the test with HCC 2998; 27.5 µM (inactive) in the test with MDA-MB-435.

Turning to `O=S(=O)(c1ccc(-c2nnc(-c3ccc(F)cc3)o2)cc1)c1ccc(-c2nnc(-c3ccc(F)cc3)o2)cc1`, the GI50 with SN12C is > 100 µM (inactive); in the test on SNB-19 it was 34.6 µM (inactive); in the test with SF-539, 50.4 µM (inactive); with NCI-H23, > 100 µM (inactive); with SNB-75 it was 11.1 µM (inactive); with U-251, 21.7 µM (inactive). Further, the GI50 is 25.5 µM (inactive) in the test on A498; > 100 µM (inactive) in the test on LOX IMVI; > 100 µM (inactive) with COLO 205; > 100 µM (inactive) with MDA-N; > 100 µM (inactive) in the test on OVCAR-5; > 100 µM (inactive) with MCF7. In addition, the GI50 was > 100 µM (inactive) in the test with SK-MEL-5; > 100 µM (inactive) in the test with HL-60; > 100 µM (inactive) in the test with SK-MEL-2; 91 µM (inactive) in the test on BT-549; > 100 µM (inactive) in the test with HCC 2998; > 100 µM (inactive) in the test on MDA-MB-435.

As for `O=c1[nH]nc(Cc2ccc([N+](=O)[O-])cc2)n1CCO`, the GI50 with SN12C, in the test with SNB-19, in the test on SF-539, in the test on NCI-H23, with U-251 and in the test with A498 was > 100 µM (inactive) throughout. The GI50 in the test on LOX IMVI, in the test with COLO 205, in the test with MDA-N, in the test on OVCAR-5, in the test with MCF7 and with SK-MEL-5 was > 100 µM (inactive) throughout. The GI50 in the test on HL-60, in the test with SK-MEL-2, in the test with BT-549, in the test on HCC 2998 and in the test on MDA-MB-435 was > 100 µM (inactive) throughout.

Regarding `O=C(O)c1c(Br)c(Br)c(Br)c(Br)c1C1c2ccc(O)cc2Oc2cc(O)ccc21`, the GI50 with SN12C, in the test on SNB-19, in the test on SF-539, in the test with SNB-75, in the test with U-251 and with A498 was > 100 µM (inactive) throughout. Also, the GI50 in the test with LOX IMVI, in the test with COLO 205, in the test with MDA-N, in the test on OVCAR-5, with MCF7 and in the test with SK-MEL-5 was > 100 µM (inactive) each time. Further, the GI50 was 0.232 µM (active) in the test with HL-60; > 100 µM (inactive) in the test on SK-MEL-2; > 100 µM (inactive) with BT-549; 68.1 µM (inactive) in the test with HCC 2998; > 100 µM (inactive) in the test on MDA-MB-435.

`FC(F)(F)c1ccc2nc(Sc3ccccn3)cnc2c1`: the GI50 in the test on SN12C was 35.5 µM (inactive); with SNB-19, 24.2 µM (inactive); in the test on SF-539, 16.7 µM (inactive); in the test on NCI-H23 it was 28.4 µM (inactive); in the test with SNB-75, 29.5 µM (inactive); in the test with U-251, 18.8 µM (inactive). Further, the GI50 in the test with A498 was 19.7 µM (inactive); in the test on LOX IMVI it was 40.6 µM (inactive); with COLO 205, 53.2 µM (inactive); in the test on MDA-N it was 69.2 µM (inactive); in the test on OVCAR-5, > 100 µM (inactive); with MCF7, 74.8 µM (inactive). In addition, the GI50 with SK-MEL-5 was 20.7 µM (inactive); with HL-60 it was 4.14 µM (inactive); in the test on SK-MEL-2, 15.9 µM (inactive); in the test with BT-549 it was 29.6 µM (inactive); with HCC 2998, 17.1 µM (inactive); in the test with MDA-MB-435 it was 58.1 µM (inactive).

Regarding `CC(=O)N1N(c2ccc([N+](=O)[O-])cc2)C(=O)C1(C)C`, the GI50 was 16.5 µM (inactive) in the test with SN12C; 50.4 µM (inactive) in the test with SNB-19; 20.9 µM (inactive) with SF-539; 16.7 µM (inactive) with NCI-H23; 18.7 µM (inactive) in the test with SNB-75; 21.7 µM (inactive) in the test with U-251. The GI50 is 37.9 µM (inactive) with A498; 11.6 µM (inactive) with LOX IMVI; 15.5 µM (inactive) in the test with COLO 205; 30.5 µM (inactive) in the test with MDA-N; 23.3 µM (inactive) in the test with OVCAR-5; 23.6 µM (inactive) in the test on MCF7. Also, the GI50 was 16.9 µM (inactive) with SK-MEL-5; 19.1 µM (inactive) in the test with SK-MEL-2; 11.9 µM (inactive) with BT-549; 15.8 µM (inactive) in the test on HCC 2998; 20.6 µM (inactive) in the test with MDA-MB-435.

In the case of `CCCNC(=S)N/C=C1\C(=O)Nc2ccccc2C1=O`, the GI50 is > 100 µM (inactive) in the test on SN12C; > 100 µM (inactive) in the test with SNB-19; > 100 µM (inactive) in the test with SF-539; > 100 µM (inactive) with NCI-H23; 83.2 µM (inactive) in the test with SNB-75; > 100 µM (inactive) in the test with U-251. The GI50 in the test on A498, with LOX IMVI, in the test on COLO 205, in the test on MDA-N, in the test with OVCAR-5 and in the test on MCF7 was > 100 µM (inactive) in each case. The GI50 in the test with SK-MEL-5, with HL-60, in the test on SK-MEL-2, in the test on BT-549, in the test with HCC 2998 and in the test on MDA-MB-435 was > 100 µM (inactive) throughout.
